# Results as given in patent US6858739B2, “Indole and benzimidazole 15-lipoxygenase inhibitors” (Warner-Lambert Company, priority 2000, dated 2005).
# Key:
# [1] = target: T1, rabbit reticulocyte 15-LO (Oryctolagus cuniculus, UniProt P12530); assay: 15-LO inhibition, rabbit reticulocyte enzyme (HPLC method of Auerbach et al.); type: biochemical; details: linoleic acid as substrate, incubation at 4° C. for 10 minutes
# T1 construct: one utilizing rabbit reticulocyte 15-LO; from tissue; host or cells: rabbit reticulocytes
# T1 sequence (P12530 1-663): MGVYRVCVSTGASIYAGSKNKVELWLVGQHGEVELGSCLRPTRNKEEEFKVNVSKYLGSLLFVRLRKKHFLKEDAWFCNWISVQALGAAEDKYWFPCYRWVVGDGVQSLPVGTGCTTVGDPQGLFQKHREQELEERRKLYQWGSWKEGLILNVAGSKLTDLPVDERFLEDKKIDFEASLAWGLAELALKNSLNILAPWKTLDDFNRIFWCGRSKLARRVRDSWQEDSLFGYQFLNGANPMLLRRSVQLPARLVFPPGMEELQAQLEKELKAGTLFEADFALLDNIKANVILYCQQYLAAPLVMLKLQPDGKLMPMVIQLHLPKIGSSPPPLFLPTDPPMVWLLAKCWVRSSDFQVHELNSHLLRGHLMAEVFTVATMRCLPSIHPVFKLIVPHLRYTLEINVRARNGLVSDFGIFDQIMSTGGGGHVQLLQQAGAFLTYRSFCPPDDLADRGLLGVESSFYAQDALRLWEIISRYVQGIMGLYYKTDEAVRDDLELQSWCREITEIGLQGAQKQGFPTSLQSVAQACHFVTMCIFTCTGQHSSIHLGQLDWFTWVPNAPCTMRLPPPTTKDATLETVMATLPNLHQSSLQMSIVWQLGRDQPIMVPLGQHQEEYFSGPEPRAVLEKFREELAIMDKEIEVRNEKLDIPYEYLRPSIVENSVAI
# Procedure: (§1) The compounds described above are effective inhibitors of 15-LO when evaluated in standard assays routinely utilized to measure 15-LO activity. Specifically, representative compounds were evaluated by the methods described by Auerbach et al., Analytical Biochemistry, 1992;201:375-380. Two in vitro assays were utilized, one utilizing rabbit reticulocyte 15-LO, the other using human 15-LO. Both used linoleic acid as substrate, to enzymatically produce a peroxide oxidation product known as 13(S)-HPODE. N-Benzoyl leucomethylene blue was utilized as a colorimetric reagent for detection and quantification of the peroxide formation. Also, HPLC was utilized to quantify the oxidation following incubation at 4° C. for 10 minutes.
# (§2) Data Column 1 gives the concentration of compound required to inhibit 50% of the activity of 15-LO (IC50) when measured by the HPLC method of Auerbach et al. using rabbit enzymes, and data Column 2 gives data from human 15-LO enzyme.
# human 15-LO = target: T2, human 15-LO (Homo sapiens, UniProt P16050); assay: 15-LO inhibition, human enzyme; type: biochemical; details: linoleic acid as substrate; for inhibition at 10 µM: at 10 micromolar
# T2 sequence (P16050 1-662): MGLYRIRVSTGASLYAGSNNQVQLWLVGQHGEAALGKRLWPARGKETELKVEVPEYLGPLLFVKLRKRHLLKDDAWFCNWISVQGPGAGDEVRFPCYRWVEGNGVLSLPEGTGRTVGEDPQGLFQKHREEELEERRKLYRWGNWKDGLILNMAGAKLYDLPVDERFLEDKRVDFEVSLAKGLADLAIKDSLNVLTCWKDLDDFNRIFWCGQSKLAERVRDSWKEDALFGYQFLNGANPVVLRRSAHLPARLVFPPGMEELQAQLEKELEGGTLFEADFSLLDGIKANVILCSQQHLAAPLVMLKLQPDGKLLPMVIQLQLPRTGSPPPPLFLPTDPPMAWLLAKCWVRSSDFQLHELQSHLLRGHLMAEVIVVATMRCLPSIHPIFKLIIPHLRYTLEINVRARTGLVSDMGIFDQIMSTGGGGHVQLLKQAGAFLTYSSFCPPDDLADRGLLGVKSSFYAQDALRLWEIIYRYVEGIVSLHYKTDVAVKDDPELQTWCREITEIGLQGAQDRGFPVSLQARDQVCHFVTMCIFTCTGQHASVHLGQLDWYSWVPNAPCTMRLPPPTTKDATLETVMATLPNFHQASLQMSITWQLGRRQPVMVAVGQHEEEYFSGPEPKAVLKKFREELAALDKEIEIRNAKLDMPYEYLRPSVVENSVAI
# Procedure: as §1, §2
IC50 [1] [nM],IC50 (human 15-LO) [nM],melting point [°C],inhibition at 10 µM (human 15-LO) [%],SMILES
113,23,208 to 209,,"COc1ccc(-c2cc3ccccc3[nH]2)cc1N [Example 1, 5-(1H-Indol-2-yl)-2-methoxy-phenylamine]"
11,29,199 to 201,,"COc1ccc(-c2cc3ccccc3[nH]2)cc1NC(=S)Nc1cc(Cl)cc(Cl)c1 [Example 2, 1-(3,5-Dichloro-phenyl)-3-[5-(1H-indol-2-yl)-2-methoxy-phenyl]-thiourea]"
27,53,210 to 211,,"COc1ccc(-c2cc3cc(F)c(F)cc3[nH]2)cc1N [Example 3, 5-(5,6-Difluoro-1H-indol-2-yl)-2-methoxy-phenylamine]"
30,60,203 to 205,,"COc1ccc(-c2cc3cc(F)c(F)cc3[nH]2)cc1NC(=S)Nc1cc(Cl)cc(Cl)c1 [Example 4, 1-(3,5-Dichloro-phenyl)-3-[5-(5,6-difluoro-1H-indol-2-yl)-2-methoxy-phenyl]-thiourea]"
11,13,201 to 203,,"COc1ccc(-c2cc3cc(F)c(F)cc3[nH]2)cc1NC(=S)Nc1ccc(C(=O)O)cc1 [Example 5, 4-{3-[5-(5,6-Difluoro-1H-indol-2-yl)-2-methoxy-phenyl]-thioureido}-benzoic acid]"
2,25,221 to 223,,"COc1ccc(-c2cc3cc(F)c(F)cc3[nH]2)cc1NC(=S)Nc1cccc(C(=O)O)c1 [Example 6, 3-{3-[5-(5,6-Difluoro-1H-indol-2-yl)-2-methoxy-phenyl]-thioureido}-benzoic acid]"
10,19,254 to 256,,"COc1ccc(-c2cc3cc(F)c(F)cc3[nH]2)cc1NS(C)(=O)=O [Example 7, N-[5-(5,6-Difluoro-1H-indol-2-yl)-2-methoxy-phenyl]-methanesulfonamide]"
19,73,217 to 219,,"COc1ccc(-c2cc3cc(F)c(F)cc3[nH]2)cc1NS(=O)(=O)c1cc(Cl)cc(Cl)c1 [Example 8, 3,5-Dichloro-N-[5-(5,6-difluoro-1H-indol-2-yl)-2-methoxy-phenyl]-benzenesulfonamide]"
40,7,211 to 213,,"COc1ccc(-c2cc3cc(F)c(F)cc3[nH]2)cc1NS(=O)(=O)c1cccs1 [Example 9, Thiophene-2-sulfonic acid [5-(5,6-difluoro-1H-indol-2-yl)-2-methoxy-phenyl]-amide]"
1390,,195 to 198,81,"COc1ccc(-c2nc3cc(Cl)c(Cl)cc3n2C(=O)OCc2ccccc2)cc1NS(=O)(=O)c1cccs1 [Example 10, 5,6-Dichloro-2-[4-methoxy-3-(thiophene-2-sulfonylamino)-phenyl]-benzoimidazole-1-carboxylic acid benzyl ester]"
24,106,,,"COc1ccc(-c2cc3cc(F)c(F)cc3[nH]2)cc1NCc1cccc(O)c1 [Example 11, 3-{[5-(5,6-Difluoro-1H-indol-2-yl)-2-methoxy-phenylamine]-methyl}-phenol]"
45,461,190 to 192,,"COc1ccc(-c2cc3cc(F)c(F)cc3[nH]2)cc1NCc1cccs1 [Example 12, [5-(5,6-Difluoro-1H-indol-2-yl)-2-methoxy-phenyl]-thiophen-2-ylmethyl-amine]"
40,414,173 to 175,,"COc1ccc(CNc2cc(-c3cc4cc(F)c(F)cc4[nH]3)ccc2OC)cc1 [Example 13, [5-(5,6-Difluoro-1H-indol-2-yl)-2-methoxy-phenyl]-(4-methoxy-benzyl)-amine]"
113,1260,168 to 170,,"COC(=O)c1ccc(CNc2cc(-c3cc4cc(F)c(F)cc4[nH]3)ccc2OC)cc1 [Example 14, 4-{[5-(5,6-Difluoro-1H-indol-2-yl)-2-methoxy-phenylamino]-methyl}-benzoic acid methyl ester]"
124,49,228 to 230,,"COc1ccc(-c2cc3cc(F)c(F)cc3[nH]2)cc1NS(=O)(=O)c1cccc([N+](=O)[O-])c1 [Example 15, N-[5-(5,6-Difluoro-1H-indol-2-yl)-2-methoxy-phenyl]-3-nitro-benzenesulfonamide]"
37,359,235 to 237,,"COc1ccc(-c2cc3cc(Cl)c(Cl)cc3[nH]2)cc1N [Example 18, 5-(5,6-Dichloro-1H-indol-2-yl)-2-methoxy-phenylamine]"
13,254,216 to 218,,"COc1ccc(-c2cc3cc(Cl)c(Cl)cc3[nH]2)cc1NC(=S)Nc1cccc(C(=O)O)c1 [Example 19, 3-{3-[5-(5,6-Dichloro-1H-indol-2-yl)-2-methoxy-phenyl]-thioureido}-benzoic acid]"
,,170 to 171,98,"COc1ccc(-c2cc3cc(F)c(F)cc3[nH]2)cc1NCc1ccc([N+](=O)[O-])c(O)c1 [Example 48, [5-(5,6-Difluoro-1H-indol-2-yl)-2-methoxy-phenyl]-(3-hydroxy-4-nitro-benzyl)-amine]"
,,195 to 196,99,"COc1ccc(-c2cc3cc(F)c(F)cc3[nH]2)cc1NCc1ccc(O)c([N+](=O)[O-])c1 [Example 49, [5-(5,6-Difluoro-1H-indol-2-yl)-2-methoxy-phenyl](4-hydroxy-3-nitro-benzyl)-amine]"
,432,154 to 155,,"COc1ccc(-c2cc3cc(F)c(F)cc3[nH]2)cc1NCc1cccc(C#N)c1 [Example 51, [5-(5,6-Difluoro-1H-indol-2yl)-2-methoxy-phenyl]-(3-cyano-benzyl)-amine]"
,31,166 to 170,,"COC(=O)c1ccc(Nc2cc(-c3cc4cc(F)c(F)cc4[nH]3)ccc2OC)cc1 [Example 52, 4-[5-(5,6-Difluoro-1H-indol-2-yl)-2-methoxy-phenylamino]-benzoic acid methyl ester]"
16,22,,,"COc1ccc(-c2cc3cc(F)c(F)cc3[nH]2)cc1Nc1cccc(OCc2ccccc2)c1 [Example 53, [5-(5,6-Difluoro-1H-indol-2-yl)-2-methoxy-phenyl]-(3-benzyloxy-phenyl)-amine]"
,127,193 to 194,,"COc1ccc(-c2cc3cc(Cl)c(Cl)cc3[nH]2)cc1Nc1cccc(C(F)(F)F)c1 [Example 54, [5-(5,6-Dichloro-1H-indol-2-yl)-2-methoxy-phenyl]-(3-trifluoro-methylphenyl)-amine]"

SMILES,IC50 [1] [nM],IC50 (human 15-LO) [nM],melting point [°C],inhibition at 10 µM (human 15-LO) [%]
"CCOP(=O)(Cc1ccc(NC(=S)Nc2cc(-c3cc4cc(F)c(F)cc4[nH]3)ccc2OC)cc1)OCC [Example 24, (4-{3-[5-(5,6-Difluoro-1H-indol-2-yl)-2-methoxy-phenyl]-thioureido}-benzyl)-phosphonic acid diethyl ester]",18,91,180 to 182,
